Data reported in US20260060989A1, “Charged Ion Channel Blockers And Methods For Use” (Nocion Therapeutics, Inc., priority 2024, published 2026).

Assays:
NaV1.7 [1] = target: T1, NaV1.7 (Homo sapiens, UniProt Q15858); test: Whole cell patch clamp, internal block of NaV1.7 current (compound in intracellular solution); type: cell-based; settings: test concentration 0.32 μM; text says intracellular inhibition (compound in internal solution), 5 Hz stimulation; read-out: NaV1.7 Extracellular Inhibition
T1 construct: expressed in transfected cells; host or cells: Tetracycline-inducible cell line kept under hygromycin and blasticidin selection
Protocol: (§1) NaV1.7 was expressed upon induction with tetracycline. Cells were cultured in DMEM containing 10% dialyzed Fetal Bovine Serum (VWR, Radnor, PA), 1% Glutamax (VWR, Radnor, PA), 1% Penicillin-Streptomycin (VWR, Radnor, PA), 100 mg/L Hygromycin (Thermo Fisher Scientific, Waltham, MA and 5 mg/L Blasticidin (Alfa Aesar, Haverhill, MA). Cells were grown and maintained at 37° C. in a humidified environment containing 10% CO2 in air. Cells were detached from the culture flask for passage and harvested using 0.05% Trypsin-EDTA (Thermo Fisher Scientific, Waltham, MA). To induce NaV1.7, cells were induced with tetracycline (0.1-1 μg/mL, IBI Scientific, Peosta, IA) the day before recording and plated onto 24-well plates. Cells were washed with DPBS (VWR, Radnor, PA), trypsinized and then triturated five times in 10 mL of growth media to break apart cell aggregates. […]
(§2) Once the recording was started, the voltage protocol was run at 30 second intervals for 5 minutes to get a stable baseline. […] Currents were recorded using PatchMaster software with Heka EPC10 (HEKA Electronics, Lambrecht, Germany). […]
(§3) The data was plotted using the Patchmaster software (HEKA Electronics, Lambrecht, Germany) and analyzed by plotting the minimum current during the voltage step to −20 mV (peak inward current) as a function of time. […]

NaV1.7 [2] = target: T1, NaV1.7; test: Whole cell patch clamp, external block of NaV1.7 current (compound in external solution); type: cell-based; settings: test concentration 10 μM; compound applied in external solution for 5 minutes, 5 Hz stimulation; read-out: NaV1.7 Extracellular Inhibition
Protocol: as §1, §2, §3

T1 sequence (Q15858 whole entry): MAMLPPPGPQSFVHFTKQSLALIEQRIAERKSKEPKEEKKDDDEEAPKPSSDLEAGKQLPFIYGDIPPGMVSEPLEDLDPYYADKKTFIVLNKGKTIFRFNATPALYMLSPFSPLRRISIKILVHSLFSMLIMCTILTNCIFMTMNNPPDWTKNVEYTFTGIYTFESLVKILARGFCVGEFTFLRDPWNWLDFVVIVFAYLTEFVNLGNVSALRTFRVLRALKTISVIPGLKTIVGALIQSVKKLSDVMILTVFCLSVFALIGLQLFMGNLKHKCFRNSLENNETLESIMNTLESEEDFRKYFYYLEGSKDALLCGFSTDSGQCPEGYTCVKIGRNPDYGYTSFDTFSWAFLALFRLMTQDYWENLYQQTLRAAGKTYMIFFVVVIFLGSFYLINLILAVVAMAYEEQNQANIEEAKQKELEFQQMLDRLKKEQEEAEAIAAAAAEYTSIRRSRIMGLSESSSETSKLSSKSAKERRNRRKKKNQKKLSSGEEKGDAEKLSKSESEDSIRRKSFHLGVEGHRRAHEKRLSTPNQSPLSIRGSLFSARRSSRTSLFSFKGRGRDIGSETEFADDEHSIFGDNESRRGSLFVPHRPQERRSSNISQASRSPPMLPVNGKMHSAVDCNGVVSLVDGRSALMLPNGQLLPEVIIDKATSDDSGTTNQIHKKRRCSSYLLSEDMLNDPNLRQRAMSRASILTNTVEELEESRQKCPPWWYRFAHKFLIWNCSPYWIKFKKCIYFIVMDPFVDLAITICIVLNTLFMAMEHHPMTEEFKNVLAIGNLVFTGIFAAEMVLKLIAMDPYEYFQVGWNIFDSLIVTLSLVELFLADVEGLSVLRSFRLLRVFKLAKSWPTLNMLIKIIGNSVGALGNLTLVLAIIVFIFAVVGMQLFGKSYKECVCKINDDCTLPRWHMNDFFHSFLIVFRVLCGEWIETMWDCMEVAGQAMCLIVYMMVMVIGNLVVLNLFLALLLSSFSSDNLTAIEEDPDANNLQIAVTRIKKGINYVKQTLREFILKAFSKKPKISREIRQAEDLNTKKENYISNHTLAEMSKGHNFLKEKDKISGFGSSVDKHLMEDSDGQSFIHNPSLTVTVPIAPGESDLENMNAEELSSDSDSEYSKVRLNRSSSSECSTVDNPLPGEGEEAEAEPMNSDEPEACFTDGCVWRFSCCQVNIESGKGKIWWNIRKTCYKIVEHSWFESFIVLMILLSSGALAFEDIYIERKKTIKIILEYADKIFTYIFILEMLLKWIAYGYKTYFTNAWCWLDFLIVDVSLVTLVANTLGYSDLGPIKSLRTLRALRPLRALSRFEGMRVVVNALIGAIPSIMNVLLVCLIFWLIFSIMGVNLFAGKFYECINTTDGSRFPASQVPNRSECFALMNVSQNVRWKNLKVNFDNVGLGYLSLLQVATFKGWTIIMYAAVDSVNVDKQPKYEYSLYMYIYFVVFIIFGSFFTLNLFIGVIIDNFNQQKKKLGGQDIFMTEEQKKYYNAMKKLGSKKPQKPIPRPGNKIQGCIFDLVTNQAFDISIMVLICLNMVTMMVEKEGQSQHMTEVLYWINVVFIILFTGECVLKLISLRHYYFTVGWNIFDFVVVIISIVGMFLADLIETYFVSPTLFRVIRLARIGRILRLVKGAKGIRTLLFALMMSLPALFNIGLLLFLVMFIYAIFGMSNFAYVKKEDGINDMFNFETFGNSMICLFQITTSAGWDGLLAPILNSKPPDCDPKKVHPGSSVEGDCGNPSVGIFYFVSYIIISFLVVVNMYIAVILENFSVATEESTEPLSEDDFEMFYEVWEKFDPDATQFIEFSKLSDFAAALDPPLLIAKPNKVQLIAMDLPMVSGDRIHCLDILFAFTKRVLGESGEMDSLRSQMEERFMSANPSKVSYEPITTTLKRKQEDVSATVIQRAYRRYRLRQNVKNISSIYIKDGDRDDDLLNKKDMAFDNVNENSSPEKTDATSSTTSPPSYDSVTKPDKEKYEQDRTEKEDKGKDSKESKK

inhibition at 0.32 µM (NaV1.7 [1]): > 70%
inhibition at 10 µM (NaV1.7 [2]): 40 to 70%
SMILES: Cc1cccc(C)c1NC(=O)C[N+]1(CCOC(=O)c2ccccc2Cl)CCCCCC1 [Compound 1, 1-(2-((2-chlorobenzoyl)oxy)ethyl)-1-(2-((2,6-dimethylphenyl)amino)-2-oxoethyl)azepan-1-ium bromide]
